Experimental data from patent US10052322B2 (SIGNAL PHARMACEUTICALS, LLC, priority 2013, dated 2018).
≈ marks a conversion by molar mass, not a printed value. Entries after “also recorded” stand apart in the source; their conditions may differ. Like-named read-outs stand apart in the source and are kept apart here. Values belong to the compound of their own block, whether it stands above or below them.

Columns and labels:
Assay type in all cases: physicochemical
[1] = Evaporation experiments (XRPD); settings: evaporation at 50° C.
Method: (§1) All of the solid samples generated in the polymorph screen were analyzed by XRPD. XRPD analysis was conducted on a Thermo ARL X'TRA X-ray powder diffractometer using Cu Kα radiation at 1.54 Å. The instrument was equipped with a fine focus X-ray tube. The voltage and amperage of the X-ray generator were set at 45 kV and 40 mA, respectively. The divergence slits were set at 4 mm and 2 mm and the measuring slits were set at 0.5 mm and 0.2 mm. Diffracted radiation was measured using a Peltier-cooled Si (Li) solid-state detector. A theta-two theta continuous scan at 2.40/min (0.5 sec/0.02° step) from 1.5° to 40° 2θ was used. A sintered alumina standard was used to check the peak positions. […] The resulting mixture was agitated for at least 24 hours at room temperature and 50° C. separately. Upon reaching equilibrium, the saturated supernatant solution was removed and allowed to evaporate slowly in an open vial under nitrogen at room temperature and 50° C., respectively. The solid resulting from the equilibration was filtered and air-dried before analysis.

[2] = Form transfer / competitive slurry experiments
Method: The resulting mixture was agitated for at least 24 hours at room temperature and 50° C. separately. Upon reaching equilibrium, the saturated supernatant solution was removed and allowed to evaporate slowly in an open vial under nitrogen at room temperature and 50° C., respectively. The solid resulting from the equilibration was filtered and air-dried before analysis.

[3] = Equilibration / slurry experiments of Form A (XRPD)
Method: as §1

[4] = Solubility of Form A in selected aqueous and organic solvents (HPLC); settings: thermodynamic from solid, read-out: Solubility (mg/mL) (room temperature)
Method: Solubility of Form A in selected aqueous and organic solvents was determined by mixing solid with solvents at room temperature. […] Solubility of Form B and Form C in water was also determined by the same HPLC method.

[5] = Hygroscopicity by dynamic vapor sorption (DVS)
Method: Hygroscopicity was determined on a Surface Measurement Systems DVS. Typically a sample size of 2-10 mg was loaded into the DVS instrument sample pan and the sample was analyzed on a DVS automated sorption analyzer at room temperature. […] The relative humidity was then decreased in a similar manner to accomplish a full adsorption/desorption cycle. For selected hydrated forms, the analysis started at 50% RH and increased to 90% RH at 10% RH step. The relative humidity was then decreased in a similar manner to 0% RH followed by increasing to 50% RH.

[6] = humidity from about 0% to about 50% RH at about 25° C.
[7] = humidity from about 0% to about 95% RH at about 25° C.
[8] = humidity increased from about 0% to about 80% RH
[9] = humidity increased from about 80% to about 90% RH
[10] = slurry in MeOH/water (1:1), seed None, 1 week

XRPD Result ([1]; Methanol): Form A + B | XRPD Result ([1]; Tetrahydrofuran): Amorphous, degraded | XRPD Result ([2]; slurry in Acetonitrile, seed None, 2 weeks): Form A | XRPD Result ([2]; slurry in EtOH/H2O (1:1), seed Form B, 1 week): Form A | XRPD Result ([2]; slurry in EtOH/H2O (1:1), seed Form C, 1 week): Form A | XRPD Result ([2]; slurry in Ethanol/Water (1:1), seed None, 2 weeks): Form A | XRPD Result ([2]; slurry in H2O, seed Form B, 1 week): Form A | XRPD Result ([2]; slurry in H2O, seed Form C, 7 weeks): Form A + C | XRPD Result ([2]; slurry in H2O, seed None, 2 weeks): Form A | XRPD Result ([2]; slurry in MTBE, seed None, 2 weeks): Form A | XRPD Result ([2]; slurry in MeOH, seed Form B, 1 week): Form A | XRPD Result ([2]; slurry in MeOH, seed Form C, 1 week): Form A | XRPD Result ([2]; slurry in MeOH, seed None, 2 weeks): Form A | XRPD Result 24 hours ([3]; equilibration at room temperature, 2-Propanol): Form A | XRPD Result 24 hours ([3]; equilibration at room temperature, Acetone): Form A | XRPD Result 24 hours ([3]; equilibration at room temperature, Acetonitrile): Form A | XRPD Result 24 hours ([3]; equilibration at room temperature, Ethanol): Form A | XRPD Result 24 hours ([3]; equilibration at room temperature, Ethanol/Water (1:1)): Form A | XRPD Result 24 hours ([3]; equilibration at room temperature, Ethyl acetate): Form A | XRPD Result 24 hours ([3]; equilibration at room temperature, Heptane): Form A | XRPD Result 24 hours ([3]; equilibration at room temperature, Methanol): Form A | XRPD Result 24 hours ([3]; equilibration at room temperature, Methyl ethyl ketone): Form A | XRPD Result 24 hours ([3]; equilibration at room temperature, Methyl t-butyl ether): Form A | XRPD Result 24 hours ([3]; equilibration at room temperature, Methylene chloride): Form A | XRPD Result 24 hours ([3]; equilibration at room temperature, Tetrahydrofuran): Form A | XRPD Result 24 hours ([3]; equilibration at room temperature, Toluene): Form A | XRPD Result 24 hours ([3]; equilibration at room temperature, Water): Form A | XRPD Result 24 hours ([3]; equilibration at room temperature, n-Butanol): Form A | XRPD Result 24 hours ([3]; slurry at 50° C., 2-Propanol): Form A | XRPD Result 24 hours ([3]; slurry at 50° C., Acetone): Form A | XRPD Result 24 hours ([3]; slurry at 50° C., Acetonitrile): Form A | XRPD Result 24 hours ([3]; slurry at 50° C., Ethanol): Form A | XRPD Result 24 hours ([3]; slurry at 50° C., Ethanol/Water (1:1)): Form A | XRPD Result 24 hours ([3]; slurry at 50° C., Ethyl acetate): Form A | XRPD Result 24 hours ([3]; slurry at 50° C., Heptane): Form A | XRPD Result 24 hours ([3]; slurry at 50° C., Methanol): Form A | XRPD Result 24 hours ([3]; slurry at 50° C., Methyl ethyl ketone): Form A | XRPD Result 24 hours ([3]; slurry at 50° C., Tetrahydrofuran): Form A | XRPD Result 24 hours ([3]; slurry at 50° C., Toluene): Form A | XRPD Result 24 hours ([3]; slurry at 50° C., Water): Form A | XRPD Result 24 hours ([3]; slurry at 50° C., n-Butanol): Form A | solubility at 24 h ([4]; 0.1N HCl, simulated gastric fluid): 7.1 mg/mL (≈ 21100 µM) | solubility at 24 h ([4]; 0.9% NaCl, saline or isotonic): 0.03 mg/mL (≈ 89.2 µM) | solubility at 24 h ([4]; acetone, organic solvent or mixture): 0.46 mg/mL (≈ 1370 µM) | solubility at 24 h ([4]; acetonitrile, organic solvent or mixture): 0.14 mg/mL (≈ 416 µM) | solubility at 24 h ([4]; aqueous buffer, Acetate buffer pH 4.0): 0.06 mg/mL (≈ 178 µM) | solubility at 24 h ([4]; aqueous buffer, Phosphate buffer pH 6.8): 0.05 mg/mL (≈ 149 µM) | solubility at 24 h ([4]; ethanol, organic solvent or mixture): 0.5 mg/mL (≈ 1490 µM) | solubility at 24 h ([4]; ethyl acetate, organic solvent or mixture): 0.32 mg/mL (≈ 951 µM) | solubility at 24 h ([4]; heptane, organic solvent or mixture): < 0.005 mg/mL | solubility at 24 h ([4]; isopropanol, organic solvent or mixture): 0.28 mg/mL (≈ 832 µM) | solubility at 24 h ([4]; methanol, organic solvent or mixture): 1.13 mg/mL (≈ 3360 µM) | solubility ([4]; organic solvent or mixture, Dimethyl Sulfoxide, estimated from visual observation of complete dissolution): > 50 mg/mL | solubility at 24 h ([4]; tetrahydrofuran, organic solvent or mixture): 5.5 mg/mL (≈ 16400 µM) | solubility at 24 h ([4]; Water, room temperature, 24 hours): 0.08 mg/mL (≈ 238 µM) | Moisture sorption (wt % at 90% RH) [5]: 0.4 wt % | weight gain [5, 6]: about 0.2 % w/w | weight gain [5, 7]: about 0.5 % w/w | mass gain [5, 8]: less than 0.35 % w/w | mass gain [5, 9]: about 0.08 % w/w
SMILES: CCN1C(=O)CNc2ncc(-c3ccc(-c4nnc[nH]4)nc3C)nc21 [Form A, 1-ethyl-7-(2-methyl-6-(1H-1,2,4-triazol-3-yl)pyridin-3-yl)-3,4-dihydropyrazino[2,3-b]pyrazin-2(1H)-one]
hygroscopicity ([5]; DVS, in words): non-hygroscopic; also recorded: not hygroscopic

XRPD Result ([2]; slurry in Acetonitrile, seed None, 3 days): Form A | Moisture sorption (wt % at 90% RH) ([5]; listed as B): 20.7 wt %
SMILES: CCN1C(=O)CNc2ncc(-c3ccc(-c4nnc[nH]4)nc3C)nc21 [Form B, 1-ethyl-7-(2-methyl-6-(1H-1,2,4-triazol-3-yl)pyridin-3-yl)-3,4-dihydropyrazino[2,3-b]pyrazin-2(1H)-one]

XRPD Result ([2]; slurry in H2O, seed None, 1 week): Form C | XRPD Result [2, 10]: Form C | Moisture sorption (wt % at 90% RH) ([5]; listed as C): 12.2 wt %
SMILES: CCN1C(=O)CNc2ncc(-c3ccc(-c4nnc[nH]4)nc3C)nc21 [Form C, 1-ethyl-7-(2-methyl-6-(1H-1,2,4-triazol-3-yl)pyridin-3-yl)-3,4-dihydropyrazino[2,3-b]pyrazin-2(1H)-one]

XRPD Result ([2]; slurry in Acetonitrile, seed None, 1 week): Form A | XRPD Result [2, 10]: Form C | Moisture sorption (wt % at 90% RH) [5]: 5.9 wt % | weight gain [5, 6]: about 2.3 % w/w | weight gain [5, 7]: about 5.8 % w/w | mass gain [5, 8]: less than 4 % w/w | mass gain [5, 9]: about 1.1 % w/w
SMILES: CCN1C(=O)CNc2ncc(-c3ccc(-c4nnc[nH]4)nc3C)nc21 [Form E, 1-ethyl-7-(2-methyl-6-(1H-1,2,4-triazol-3-yl)pyridin-3-yl)-3,4-dihydropyrazino[2,3-b]pyrazin-2(1H)-one]
